Measured values as given in patent US20170100433A1, “MODIFIED NATURAL KILLER CELLS HAVING ANTI-FUGETACTIC PROPERTIES AND USES THEREOF” (THE GENERAL HOSPITAL CORPORATION DBA MASSACHUSETTS GENERAL …, priority 2015, published 2017).

Legend:
[1] = system: human CD3+ T cells; details: T cells incubated with 0.01 μM to 10 mM AMD3100; anti-fugetactic at lower, fugetactic at higher concentrations; cells harvested after 3 h
Experimental: For quantitative transmigration assays, purified human CD3^+ T cells (approximately 2×10^4 cells) are added to the upper chamber of a Transwell® insert in each well, to a total volume of 150 μl of Iscove's modified medium. […] To determine the anti-fugetactic concentration of AMD3100, the T cells are incubated with 0.01 μM to 10 mM AMD3100 prior to addition to the chamber. Cells are harvested from the lower chamber after 3 h, and cell counts are performed using a hemocytometer.

[2] = system: human CD3+ T cells; details: CI of 1.0 is the control, triplicate wells
Experimental: Freshly prepared and purified human CD3^+ T cells were prepared from healthy donor peripheral blood. 20,000 T cells were loaded into the upper chamber of the Transwell in control, chemotactic or fugetactic settings with AMD3100 at concentrations between 0.1 μM and 10 μM. Migrated cells were counted in the lower chamber and migration quantitated as previously described. Vianello et al. The Journal of Immunology, 2006, 176: 2902-2914; Righi et al., Cancer Res.; 71(16); 5522-34, each of which is incorporated herein in its entirety.
All wells were run in triplicate.

c1cc(CN2CCCNCCNCCCNCC2)ccc1CN1CCCNCCNCCCNCC1 [AMD3100, 1,1′-[1,4-phenylenebis(methylene)]bis [1,4,8,11-tetraazacyclotetradecane]]
Effect of AMD3100 pre-incubation on T cell migration [1]: bimodal effect
CI (chemotactic index), chemotactic response ([2]; chemotactic setting, AMD3100 at 1 μM, FIG. 1): 2.3
CI (chemotactic index), fugetactic response ([2]; fugetactic setting, AMD3100 at 0.1 μM, FIG. 2): 1.6
